Measured values published in patent publication US20070166547A1, “Use of a layer consisting of hydrophobic linear, or two-dimensional polycyclic aromatics as a barrier layer or an encapsulation and electric components constructed with a layer of this type and comprising organic polymers” (priority 2003, published 2007).
Marks after values point to notes of the source that are not given here.

Columns and labels:
plasma hemostasis [1] = assay: Thrombin time after intravenous administration; format: in vivo, rabbit
Description: (§1) The investigations were performed on 72 rabbits of the “Chinchilla” breed with a mass of 2.5±0.3 kg, who were administered which solutions of compounds 2, 15, 21, 37 in doses of 15, 30 and 60 mg/kg intravenously. The experiments included the thrombin-test (series No. 7300) and the coagulability-test (series No. 5000) purchased from the scientific-and-production association (SPA) “Renam”, thromboplastin (series No. 240600) and calcium chloride purchased from the SPA “MedioLab”
(§2) The static parameters of the blood and plasma coagulation (partial activated thromboplastin time, thrombin time, maximum coagulation activity (test for auto coagulation) were determined using the Behnk Electronic coagulometer (Germany). The operating principle of this instrument is based on the fact that the formed blood clot breaks the contacts of the pulse counter in the flask-pin circuit, said pin permanently oscillating in a vertical plane. The moment of formation of the clot is registered by stopping the stop watch hand.
(§3) The measurements were effected at a constant temperature of 37° C. maintained by a temperature control unit.
The “thrombin time” characterizes the rate of transformation of fibrinogen into fibrin. It was determined by measuring the coagulation time of plasma deprived of thrombocytes under the effect of thrombin standardized by the control plasma.
0.2 ml of a thrombin solution was added to 0.2 ml of the test blood plasma of experimental animals, from whom the blood was taken 15, 30, 60 and 120 minutes after the intravenous administration of compounds 2, 15, 21, 37 according to the invention in doses of 15, 30, 60 mg/kg incubated for 1 minute at a temperature of 37° C. and the time of formation of clot T2 in seconds in a coagulometer of the Behnk Electronic Company (Germany).

[2] = test system: adenosine-sensitive receptors of thrombocytes; assay: ADP-induced aggregation of thrombocytes in vitro (Born method); format: cell-based, rabbit; conditions: 3 min incubation, ADP 10^−5 M
Description: The compounds according to the invention were studied for the effect of aggregation of thrombocytes induced by a preliminary introduction of a solution of an aggregation inductor with a competing introduction of the compounds according to the invention.
The aggregation of thrombocytes was studied by the Born method based on determination of the changes in the optical density of plasma enriched with thrombocytes after its incubation with an aggregation inductor.
Adenozinediphosphoric acid (ADP) was selected as an aggregation inductor, which in fact is an aggregation generator. Use was made of a sample (registration number 885) of the Sigma Diagnostics Company (USA) in final concentration of 10^−5 M.
The experiments were carried out on male rabbits of the “Chinchilla” breed having a mass of 2.7±0.3 kg. 18-24 hours prior to the experiment they were deprived of feed while preserving free access to water.
To obtain plasma enriched with thrombocytes, blood was taken from a cut of a marginal vein of the rabbit ear, the sample was stabilized with 3.8% of sodium citrate solution in a ratio of 9:1 and centrifuged at 200 g (1000 rev/min) for 10 minutes. The top supernatant layer enriched with thrombocytes was transferred by an automatic dropper into a silicone test tube and kept at 37° C. The plasma enriched with thrombocytes contained, on the average, […]. If this content exceeded the specified 3×10^8 blood platelets in 1 liter, this sample was diluted to the necessary concentration with plasma deprived of thrombocytes, which was obtained by centrifuging blood at 650 g during 10 minutes.
The measurements of the optical density of the samples were made on two-channel aggregometer of the “Chronolog” Company (USA). A flask containing 490 mkl of plasma rich with thrombocytes was placed in a device, into which a magnetic agitator covered with Teflon was lowered. The index of maximum amplitude of aggregation (MA) in percent of a fall of the plasma optical density under effect of the aggregation inductor was recorded. The control index MA of plasma was compared with the MA of plasma incubated for 3 minutes with different concentrations of the compounds: from 10^−3 to 10^−7 in vitro experiments or with plasma obtained 15, 30, 60 and 120 minutes after intravenous administration of different doses of the compounds in vivo experiments.
The process of aggregation of thrombocytes was recorded with the help of a computer; on the monitor screen the there were depicted curves reflecting changes of the optical density of the plasma enriched which was taken as a standard 100% compared to the optical density of the non-thrombocyte plasma taken for 0% content of thrombocytes.
Under in vitro conditions a flask was filled with blood plasma enriched with thrombocytes, to which an aggregation inductor ADP was added at a concentration of 10^−5 M, incubated for 3 minutes, and then the compounds according to the invention were introduced directly into the flask. Their action by aggregation of thrombocytes was studied after 3-minute incubation in a wide range of concentrations from 10^−3 to 10^−7 M to minimum concentration of 10^−7 M not inducing no effect of suppressing the aggregation.

plasma hemostasis [3] = assay: Prothrombin time after intravenous administration; format: in vivo, rabbit; conditions: for effect on the prothrombin time index (overall): doses of 15.0, 30.0, 60.0 mg/kg
Description: as §1, §2, §3
The method of its determination is based on estimation of the coagulation of citrate or oxalic blood plasma, when it is mixed with thromboplastin and a calcium chloride solution. Since under these conditions the time of formation of the clot depends on the content of II, VII, IX and X factors in the investigated plasma sample, now the test is called “thromboplastin time by Quick” or “activity thromboplastin complex”.
Compounds 2, 15, 21, 37 according to the invention at a concentration of 15, 30 and 60 mg/kg were administered to the above experimental animals intravenously and their blood was taken off after 15, 30, 60 and 120 minutes after the administration.
Citrate blood containing 1 part of citrate per 9 parts of native blood was centrifuged at 3000 rev/min for 10 minutes to obtain plasma deprived of thrombocytes.
Added into a test tube in a water bath were 0.1 ml of plasma and 0.1 ml of a thromboplastin solution. After 60 seconds, 0.1 ml of 0.277% solution of calcium chloride was added and the time of reaction T1 in seconds was registered.

Row | Structure (SMILES) | T2, s After 120 minutes (thrombin time) (plasma hemostasis [1]; dose 15.0 mg/kg intravenously) | T2, s after 15 minutes (thrombin time) (plasma hemostasis [1]; dose 15.0 mg/kg intravenously) | T2, s after 30 minutes (thrombin time) (plasma hemostasis [1]; dose 15.0 mg/kg intravenously) | T2, s after 60 minutes (thrombin time) (plasma hemostasis [1]; dose 15.0 mg/kg intravenously) | T2, s After 120 minutes (thrombin time) (plasma hemostasis [1]; dose 30.0 mg/kg intravenously) | T2, s after 15 minutes (thrombin time) (plasma hemostasis [1]; dose 30.0 mg/kg intravenously) | T2, s after 30 minutes (thrombin time) (plasma hemostasis [1]; dose 30.0 mg/kg intravenously) | T2, s after 60 minutes (thrombin time) (plasma hemostasis [1]; dose 30.0 mg/kg intravenously) | T2, s After 120 minutes (thrombin time) (plasma hemostasis [1]; dose 60.0 mg/kg intravenously) | T2, s after 15 minutes (thrombin time) (plasma hemostasis [1]; dose 60.0 mg/kg intravenously) | T2, s after 30 minutes (thrombin time) (plasma hemostasis [1]; dose 60.0 mg/kg intravenously) | T2, s after 60 minutes (thrombin time) (plasma hemostasis [1]; dose 60.0 mg/kg intravenously) | MA - fall of optical density of plasma, % to the standard ([2]; 10^−3 M) [%] | MA - fall of optical density of plasma, % to the standard ([2]; 10^−4 M) [%] | MA - fall of optical density of plasma, % to the standard ([2]; 10^−5 M) [%] | MA - drop of optical density, % compared to control ([2]; 10^−6 M) [%] | MA - drop of optical density, % compared to control ([2]; 10^−7 M) [%] | T, s After 120 minutes (prothrombin time) (plasma hemostasis [3]; dose 15.0 mg/kg intravenously) [s] | T, s after 15 minutes (prothrombin time) (plasma hemostasis [3]; dose 15.0 mg/kg intravenously) [s] | T, s after 30 minutes (prothrombin time) (plasma hemostasis [3]; dose 15.0 mg/kg intravenously) [s] | further results
1 | Nc1ccnc2c(=O)n([C@@H]3O[C@H](CO)[C@@H](O)[C@H]3O)[nH]c(=O)c12 [Compound 2, 4-amino-7-(β-D-ribofuranosile)pyrido[2,3-d]-6H-pyridazine-5,8-dione] | 15.3* s | 16.2* s | 17.0* s | 16.0* s | 15.3* s | 17.8* s | 18.4* s | 19.2* s | 15.3* s | 16.0* s | 16.9* s | 15.9* s | 51.4 ± 2.7 | 50.4 ± 1.7 | 48.2 ± 1.0 | 50.1 ± 2.0 | 50.8 ± 2.2 | 11.7 ± 0.1 | 11.7 ± 0.2 | 11.5 ± 0.2 | T, s after 60 minutes (prothrombin time) (plasma hemostasis [3]; dose 15.0 mg/kg intravenously): 11.4 ± 0.2 s; T, s After 120 minutes (prothrombin time) (plasma hemostasis [3]; dose 30.0 mg/kg intravenously): 11.2 ± 0.2 s; T, s after 15 minutes (prothrombin time) (plasma hemostasis [3]; dose 30.0 mg/kg intravenously): 11.1 ± 0.2 s; T, s after 30 minutes (prothrombin time) (plasma hemostasis [3]; dose 30.0 mg/kg intravenously): 11.0 ± 0.1 s; T, s after 60 minutes (prothrombin time) (plasma hemostasis [3]; dose 30.0 mg/kg intravenously): 11.3 ± 0.1 s; T, s After 120 minutes (prothrombin time) (plasma hemostasis [3]; dose 60.0 mg/kg intravenously): 11.9 ± 0.1 s; T, s after 15 minutes (prothrombin time) (plasma hemostasis [3]; dose 60.0 mg/kg intravenously): 12.0 ± 0.1 s; T, s after 30 minutes (prothrombin time) (plasma hemostasis [3]; dose 60.0 mg/kg intravenously): 11.9 ± 0.2 s; T, s after 60 minutes (prothrombin time) (plasma hemostasis [3]; dose 60.0 mg/kg intravenously): 12.1 ± 0.2 s; effect on the prothrombin time index (overall) (plasma hemostasis [3]): have no effect on the prothrombin time index
2 | Nc1cccc2c(=O)[nH][nH]c(=O)c12.[Na] [Compound 15, sodium salt of 5-amino-benzo[d]-3H-pyridazine-1,4-dione] | 15.5* s | 17.0* s | 18.5* s | 16.5* s | 15.0* s | 19.7* s | 20.5* s | 21.3* s | 14.7* s | 16.8* s | 18.0* s | 16.5* s | 44.8 ± 2.8 | 46.3 ± 1.7 | 39.8 ± 3.1 | 47.3 ± 1.8 | 49.3 ± 1.4 | 11.5 ± 0.2 | 11.5 ± 0.2 | 11.7 ± 0.2 | T, s after 60 minutes (prothrombin time) (plasma hemostasis [3]; dose 15.0 mg/kg intravenously): 11.2 ± 0.2 s; T, s After 120 minutes (prothrombin time) (plasma hemostasis [3]; dose 30.0 mg/kg intravenously): 11.3 ± 0.2 s; T, s after 15 minutes (prothrombin time) (plasma hemostasis [3]; dose 30.0 mg/kg intravenously): 11.0 ± 0.2 s; T, s after 30 minutes (prothrombin time) (plasma hemostasis [3]; dose 30.0 mg/kg intravenously): 11.2 ± 0.2 s; T, s after 60 minutes (prothrombin time) (plasma hemostasis [3]; dose 30.0 mg/kg intravenously): 11.4 ± 0.2 s; T, s After 120 minutes (prothrombin time) (plasma hemostasis [3]; dose 60.0 mg/kg intravenously): 12.0 ± 0.1 s; T, s after 15 minutes (prothrombin time) (plasma hemostasis [3]; dose 60.0 mg/kg intravenously): 12.0 ± 0.1 s; T, s after 30 minutes (prothrombin time) (plasma hemostasis [3]; dose 60.0 mg/kg intravenously): 12.0 ± 0.1 s; T, s after 60 minutes (prothrombin time) (plasma hemostasis [3]; dose 60.0 mg/kg intravenously): 12.0 ± 0.2 s; effect on the prothrombin time index (overall) (plasma hemostasis [3]): have no effect on the prothrombin time index
3 | Nc1cnc2c(=O)n([C@@H]3O[C@H](CO)[C@@H](O)[C@H]3O)[nH]c(=O)c2n1.[Na] [Compound 21, sodium salt of 3-amino-7-(β-D-ribofuranosile)pyrazine[2,3-d]-6H-pyridazine-5,8-dione] | 15.7* s | 16.4* s | 17.7* s | 16.1* s | 15.6* s | 17.9* s | 18.8* s | 19.0* s | 15.7* s | 16.2* s | 17.7* s | 16.3* s | 47.1 ± 3.0 | 49.2 ± 2.1 | 41.8 ± 2.4 | 49.6 ± 1.7 | 49.7 ± 2.1 | 11.5 ± 0.2 | 11.4 ± 0.2 | 11.5 ± 0.1 | T, s after 60 minutes (prothrombin time) (plasma hemostasis [3]; dose 15.0 mg/kg intravenously): 11.3 ± 0.1 s; T, s After 120 minutes (prothrombin time) (plasma hemostasis [3]; dose 30.0 mg/kg intravenously): 11.2 ± 0.2 s; T, s after 15 minutes (prothrombin time) (plasma hemostasis [3]; dose 30.0 mg/kg intravenously): 11.2 ± 0.1 s; T, s after 30 minutes (prothrombin time) (plasma hemostasis [3]; dose 30.0 mg/kg intravenously): 11.2 ± 0.1 s; T, s after 60 minutes (prothrombin time) (plasma hemostasis [3]; dose 30.0 mg/kg intravenously): 11.3 ± 0.2 s; T, s After 120 minutes (prothrombin time) (plasma hemostasis [3]; dose 60.0 mg/kg intravenously): 12.0 ± 0.2 s; T, s after 15 minutes (prothrombin time) (plasma hemostasis [3]; dose 60.0 mg/kg intravenously): 12.0 ± 0.2 s; T, s after 30 minutes (prothrombin time) (plasma hemostasis [3]; dose 60.0 mg/kg intravenously): 11.8 ± 0.1 s; T, s after 60 minutes (prothrombin time) (plasma hemostasis [3]; dose 60.0 mg/kg intravenously): 12.1 ± 0.1 s; effect on the prothrombin time index (overall) (plasma hemostasis [3]): have no effect on the prothrombin time index
4 | O=c1[nH][nH]c(=O)c2nccnc12.[Li] [Compound 25, lithium salt of pyrazine[2,3-d]-6H-pyridazine-5,8-dione] | – | – | – | – | – | – | – | – | – | – | – | – | 48.2 ± 2.9 | 48.6 ± 2.0 | 43.4 ± 3.2 | 50.3 ± 2.1 | 50.1 ± 3.0 | – | – | – | –
5 | Nc1ncc2c(=O)[nH][nH]c(=O)c2n1 [Compound 36, 2-amino-pyrimido[4,5-d]-6H-pyridazine-5,8-dione] | – | – | – | – | – | – | – | – | – | – | – | – | 45.8 ± 2.3 | 46.9 ± 2.4 | 40.1 ± 2.0 | 49.3 ± 2.6 | 49.7 ± 1.8 | – | – | – | –
